The text below walks through data of PubChem BioAssay (NCI).

SMILES strings stand for the structures.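 Assay format: 96-well plates, 48-hour exposure. Abbreviation: GI50, concentration required for 50% inhibition of growth. At the TGI there is no net growth.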

Test systems include IGROV1 ovarian; PC-3 prostate; HOP-92 NSCLC; MDA-MB-231 breast; HCT-116 colon; SF-268 CNS; SF-295 CNS; HOP-62 NSCLC; OVCAR-3 ovarian; TK-10 renal.
Assay in all cases: growth of human tumour cells (NCI), 48 h

As for `COc1cc2c(cc1C)NC(=O)/C2=C/c1ccccn1`, the GI50 was 9.6 µM in the assay with IGROV1 ovarian; 8.73 µM in the assay on PC-3 prostate; 2.9 µM with HOP-92 NSCLC; 2.02 µM with MDA-MB-231 breast; 2.53 µM in the assay with HCT-116 colon; 3.28 µM in the assay with SF-268 CNS. Also, the GI50 in the assay on SF-295 CNS is 3.46 µM; in the assay on HOP-62 NSCLC, 4.24 µM; in the assay with OVCAR-3 ovarian it was 2.61 µM. In addition, the TGI was over 100 µM with IGROV1 ovarian; over 100 µM with PC-3 prostate; 89.4 µM in the assay on HOP-92 NSCLC; 7.96 µM in the assay on MDA-MB-231 breast; over 100 µM in the assay on HCT-116 colon; 24.6 µM in the assay with SF-268 CNS. For the same compound, the TGI in the assay with SF-295 CNS is 13.3 µM; in the assay on HOP-62 NSCLC, over 100 µM; in the assay with OVCAR-3 ovarian, 6.81 µM.

Consider `Cc1cc(=O)n(-c2ccccc2C)c(C)n1`, for which the TGI in the assay on IGROV1 ovarian, with TK-10 renal, in the assay on HOP-92 NSCLC, in the assay on HCT-116 colon, in the assay with SF-268 CNS and in the assay on SF-295 CNS was over 100 µM in each case. In addition, the TGI with HOP-62 NSCLC and with OVCAR-3 ovarian was over 100 µM throughout.

For the compound `Cc1ccc2nc(NC(=O)C(=O)C(C#N)c3nc4ccccc4s3)sc2c1` (stereo unspecified), the TGI with IGROV1 ovarian is 51.8 µM; with TK-10 renal, 85.3 µM; in the assay with HOP-92 NSCLC it was 75.3 µM; in the assay with HCT-116 colon, over 100 µM; with SF-268 CNS it was over 100 µM; in the assay on SF-295 CNS, over 100 µM. For the same compound, the TGI in the assay on HOP-62 NSCLC amounted to 31.9 µM; in the assay on OVCAR-3 ovarian it was 56.3 µM.

Consider `CCOC(=O)NC(=O)c1cn(CCOC(=O)CCCCCCCCC(=O)OCCn2cc(C(=O)NC(=O)OCC)c(=O)[nH]c2=O)c(=O)[nH]c1=O`, for which the TGI with IGROV1 ovarian, in the assay with TK-10 renal, in the assay with HOP-92 NSCLC, with HCT-116 colon, with SF-268 CNS and in the assay on SF-295 CNS was over 100 µM throughout. The TGI with HOP-62 NSCLC and in the assay on OVCAR-3 ovarian was over 100 µM throughout.

Take `Cc1ccc(S(=O)(=O)OC2CSS(=O)CC2OS(=O)(=O)c2ccc(C)cc2)cc1` (stereo unspecified): the TGI in the assay on IGROV1 ovarian worked out at 32.9 µM; in the assay with TK-10 renal, 28.5 µM; in the assay on HOP-92 NSCLC, 25.9 µM; in the assay on HCT-116 colon, 27.1 µM; in the assay on SF-268 CNS it was 30.7 µM; with SF-295 CNS, 29.2 µM. The TGI in the assay with HOP-62 NSCLC turned out to be 36.7 µM; in the assay with OVCAR-3 ovarian it was 31.8 µM.

With `CCc1cc(C(=O)OC)cn1C(=N)c1ccc(Cl)cc1`, the TGI in the assay on IGROV1 ovarian, in the assay on TK-10 renal, in the assay on HOP-92 NSCLC, with HCT-116 colon, in the assay on SF-268 CNS and in the assay on SF-295 CNS was over 100 µM throughout. In addition, the TGI in the assay with HOP-62 NSCLC and with OVCAR-3 ovarian was over 100 µM each time.

For `O=C(O)C(SC(=S)c1ccc(C(=S)SC(C(=O)O)c2ccccc2)cc1)c1ccccc1` (stereo unspecified), the TGI in the assay with IGROV1 ovarian, in the assay on TK-10 renal, in the assay on HOP-92 NSCLC, in the assay on HCT-116 colon, in the assay with SF-268 CNS and with SF-295 CNS was over 100 µM in each case. The TGI with HOP-62 NSCLC and in the assay with OVCAR-3 ovarian was over 100 µM each time.

`CP1(=O)CCCCC1`: the TGI in the assay with IGROV1 ovarian, with TK-10 renal, in the assay on HOP-92 NSCLC, with HCT-116 colon, in the assay with SF-268 CNS and with SF-295 CNS was over 100 µM throughout. The TGI with HOP-62 NSCLC and in the assay on OVCAR-3 ovarian was over 100 µM throughout.

As to `COC1CC(OS(=O)(=O)c2ccc([N+](=O)[O-])cc2)C(OC(=O)c2ccccc2)C(C)O1` (stereo unspecified), the TGI in the assay with IGROV1 ovarian, in the assay with TK-10 renal, in the assay on HOP-92 NSCLC, in the assay with HCT-116 colon, in the assay with SF-268 CNS and in the assay with SF-295 CNS was over 100 µM each time. For the same compound, the TGI in the assay with HOP-62 NSCLC and with OVCAR-3 ovarian was over 100 µM each time.

With `COc1ccc2cc(C(=O)/C=C/c3ccc(Cl)cc3Cl)ccc2c1`, the GI50 in the assay with PC-3 prostate was 30.8 µM; in the assay on TK-10 renal it was 27.7 µM; in the assay with HOP-92 NSCLC, over 100 µM; with MDA-MB-231 breast, 44.6 µM; in the assay on HCT-116 colon it was 3.04 µM; with SF-268 CNS it was over 100 µM. For the same compound, the GI50 was 35.9 µM with SF-295 CNS, 24 µM in the assay with HOP-62 NSCLC and 16.8 µM in the assay on OVCAR-3 ovarian. Also, the TGI was over 100 µM in the assay on PC-3 prostate; over 100 µM in the assay on TK-10 renal; over 100 µM in the assay on HOP-92 NSCLC; over 100 µM in the assay with MDA-MB-231 breast; 10.3 µM in the assay with HCT-116 colon; over 100 µM in the assay with SF-268 CNS. The TGI in the assay with SF-295 CNS is over 100 µM; in the assay on HOP-62 NSCLC, 50.8 µM; in the assay on OVCAR-3 ovarian, 43.9 µM.

Turning to `CCC(C)(CC(C)(C)C(=O)NCC(=O)NC(Cc1ccccc1)C(=O)NC(Cc1ccccc1)C(=O)NCC(=O)NC1CC(OC2CC(O)(C(=O)CO)Cc3c(O)c4c(c(O)c32)C(=O)c2c(OC)cccc2C4=O)OC(C)C1O)C(=O)NCC(C)O` (stereo unspecified), the GI50 with IGROV1 ovarian was 41.7 mg/L; with PC-3 prostate, over 150 mg/L; with TK-10 renal it was over 150 mg/L; in the assay with HOP-92 NSCLC, over 150 mg/L; in the assay on MDA-MB-231 breast it was 119 mg/L; in the assay with HCT-116 colon it was 55.3 mg/L. The GI50 in the assay on SF-295 CNS was 75.9 mg/L; in the assay with HOP-62 NSCLC, 63.7 mg/L; with OVCAR-3 ovarian, over 150 mg/L. The TGI in the assay on IGROV1 ovarian, in the assay on PC-3 prostate, with TK-10 renal, in the assay with HOP-92 NSCLC, in the assay on MDA-MB-231 breast and in the assay with HCT-116 colon was over 150 mg/L in each case. In addition, the TGI in the assay with SF-295 CNS, in the assay on HOP-62 NSCLC and with OVCAR-3 ovarian was over 150 mg/L each time.

As for `C=C1C(=O)O[C@H]2[C@H]1CC/C(COC(=O)NCc1cn(C)c3ccccc13)=C\CC[C@@]1(C)O[C@@H]21`, the GI50 in the assay with IGROV1 ovarian was 1.58 µM; with PC-3 prostate, 1.76 µM; in the assay with TK-10 renal it was 1.8 µM; in the assay with HOP-92 NSCLC, 1.46 µM; with MDA-MB-231 breast, 1.68 µM; with HCT-116 colon, 0.288 µM. Further, the GI50 in the assay on SF-268 CNS was 1.84 µM; in the assay with SF-295 CNS it was 3.27 µM; in the assay on OVCAR-3 ovarian, 1.03 µM. Further, the TGI in the assay with IGROV1 ovarian worked out at 3.31 µM; with PC-3 prostate, 4.79 µM; in the assay with TK-10 renal, 3.43 µM; with HOP-92 NSCLC, 3.05 µM; in the assay on MDA-MB-231 breast, 3.54 µM; in the assay with HCT-116 colon, 1.07 µM. Further, the TGI with SF-268 CNS was found to be 4.95 µM; in the assay with SF-295 CNS, 13.9 µM; with OVCAR-3 ovarian it was 2.3 µM.
